Measured values as given in patent US10173982B2, “Picolinamides as fungicides” (Dow AgroSciences LLC, priority 2016, dated 2019).
Read-outs that look alike come from different tables or passages of the source.

Legend:
Type in all cases: in vivo
Zymoseptoria tritici = assay: Fungicidal activity: leaf blotch of wheat (SEPTTR), percent disease control on wheat seedlings; conditions: Zymoseptoria tritici, LV (low volume) activity at 121.5 g/H
Procedure: Technical grades of materials were dissolved in acetone, which were then mixed with nine volumes of water containing 110 ppm Triton X-100. The fungicide solutions were applied onto wheat seedlings using an automated booth sprayer to run-off. All sprayed plants were allowed to air dry prior to further handling. All fungicides were evaluated using the aforementioned method for their activity vs. all target diseases, unless stated otherwise. Wheat leaf blotch and brown rust activity were also evaluated using track spray applications, in which case the fungicides were formulated as EC formulations, containing 0.1% Trycol 5941 in the spray solutions. Wheat plants (variety Yuma) were grown from seed in a greenhouse in 50% mineral soil/50% soil-less Metro mix until the first leaf was fully emerged, with 7-10 seedlings per pot. These plants were inoculated with an aqueous spore suspension of Zymoseptoria tritici either prior to or after fungicide treatments. After inoculation the plants were kept in 100% relative humidity (one day in a dark dew chamber followed by two to three days in a lighted dew chamber at 20° C.) to permit spores to germinate and infect the leaf. The plants were then transferred to a greenhouse set at 20° C. for disease to develop. When disease symptoms were fully expressed on the 1st leaves of untreated plants, infection levels were assessed on a scale of 0 to 100 percent disease severity. Percent disease control was calculated using the ratio of disease severity on treated plants relative to untreated plants.

Puccinia triticina = assay: Fungicidal activity: wheat brown rust (PUCCRT), percent disease control on wheat seedlings; conditions: Puccinia triticina, LV (low volume) activity at 121.5 g/H
Procedure: Technical grades of materials were dissolved in acetone, which were then mixed with nine volumes of water containing 110 ppm Triton X-100. The fungicide solutions were applied onto wheat seedlings using an automated booth sprayer to run-off. All sprayed plants were allowed to air dry prior to further handling. All fungicides were evaluated using the aforementioned method for their activity vs. all target diseases, unless stated otherwise. Wheat leaf blotch and brown rust activity were also evaluated using track spray applications, in which case the fungicides were formulated as EC formulations, containing 0.1% Trycol 5941 in the spray solutions. Wheat plants (variety Yuma) were grown from seed in a greenhouse in 50% mineral soil/50% soil-less Metro mix until the first leaf was fully emerged, with 7-10 seedlings per pot. These plants were inoculated with an aqueous spore suspension of Puccinia triticina either prior to or after fungicide treatments. After inoculation the plants were kept in a dark dew room at 22° C. with 100% relative humidity overnight to permit spores to germinate and infect the leaf. The plants were then transferred to a greenhouse set at 24° C. for disease to develop. Fungicide formulation, application and disease assessment followed the procedures as described in the Example A. Results of the evaluations are shown below in Table 4.

Phakopsora pachyrhizi = assay: Fungicidal activity: Asian soybean rust (PHAKPA), disease control on soybean seedlings; conditions: High volume at 25 ppm
Procedure: Technical grades of materials were dissolved in acetone, which were then mixed with nine volumes of water containing 0.011% Tween 20. The fungicide solutions were applied onto soybean seedlings using an automated booth sprayer to run-off. All sprayed plants were allowed to air dry prior to further handling.
Soybean plants (variety Williams 82) were grown in soil-less Metro mix, with one plant per pot. Two weeks old seedlings were used for testing. Plants were inoculated either 3 days prior to or 1 day after fungicide treatments. Plants were incubated for 24 h in a dark dew room at 22° C. and 100% relative humidity then transferred to a growth room at 23° C. for disease to develop. Disease severity was assessed on the sprayed leaves.

[1] = 24 h, 1 Day Protectant, read-out: SEPTTR 1DP disease control rating
[2] = 72 h, 3 Day Curative, read-out: SEPTTR 3DC disease control rating
[3] = 24 h, 1 Day Protectant, read-out: PUCCRT 1DP disease control rating
[4] = 72 h, 3 Day Curative, read-out: PUCCRT 3DC disease control rating
[5] = 24 h, 1 Day Protectant, read-out: PHAKPA 1DP disease control rating
[6] = 72 h, 3 Day Curative, read-out: PHAKPA 3DC disease control rating

SMILES | pest or weed control at 121.5 g/ha (Zymoseptoria tritici; [1]) | pest or weed control at 121.5 g/ha (Zymoseptoria tritici; [2]) | pest or weed control at 121.5 g/ha (Puccinia triticina; [3]) | pest or weed control at 121.5 g/ha (Puccinia triticina; [4]) | pest or weed control at 25 ppm (Phakopsora pachyrhizi; [5]) | pest or weed control at 25 ppm (Phakopsora pachyrhizi; [6])
COc1ccnc(C(=S)N[C@@H](C)C(=O)O[C@@H](C)[C@H](Sc2ccccc2)c2ccc(F)cc2)c1OC(C)=O [Compound 85] | ≤ 80% | ≤ 0% | ≤ 80% | ≤ 0% | ≤ 80% | ≤ 0%
COc1ccnc(C(=O)N[C@@H](C)C(=O)O[C@@H](C)[C@H](Sc2ccc(C(F)(F)F)cn2)c2ccccc2)c1OC(C)=O [Compound 71] | ≤ 80% | ≤ 80% | ≤ 0% | ≤ 80% | ≤ 80% | ≤ 80%
COc1ccnc(C(=O)N[C@@H](C)C(=O)O[C@@H](C)[C@H](Sc2ccccc2)c2ccccc2)c1OC(=O)C(C)C [Compound 81] | ≤ 80% | ≤ 80% | ≤ 80% | ≤ 80% | ≤ 80% | ≤ 80%
COc1ccnc(C(=O)N[C@@H](C)C(=O)O[C@@H](C)[C@H](Sc2ccc(C)cc2C)c2ccccc2)c1OC(C)=O [Compound 67] | > 80% | > 80% | > 80% | ≤ 80% | ≤ 80% | ≤ 0%
COc1ccnc(C(=O)N[C@@H](C)C(=O)O[C@@H](C)[C@H](Sc2ccccc2)c2ccc(C)cc2)c1OC(C)=O [Compound 77] | > 80% | ≤ 80% | > 80% | ≤ 80% | ≤ 80% | ≤ 80%
COc1cc(F)ccc1[C@@H](Sc1ccccc1)[C@H](C)OC(=O)[C@H](C)NC(=O)c1nccc(OC)c1OC(C)=O [Compound 84] | > 80% | ≤ 0% | ≤ 80% | ≤ 80% | ≤ 80% | ≤ 0%
COc1ccnc(C(=O)N[C@@H](C)C(=O)O[C@@H](C)[C@H](SCC(C)C)c2ccccc2)c1OC(C)=O [Compound 69] | ≤ 80% | ≤ 0% | > 80% | ≤ 80% | > 80% | ≤ 80%
COc1ccnc(C(=O)N[C@@H](C)C(=O)O[C@@H](C)[C@@H](c2ccccc2)S(=O)(=O)c2ccc(F)cc2)c1OC(C)=O [Compound 64] | ≤ 80% | ≤ 80% | ≤ 80% | ≤ 0% | ≤ 0% | ≤ 80%
